Measurements published in publication PMC12454493, “Insight on novel sulfamoylphenyl pyrazole derivatives as anticancer carbonic anhydrase inhibitors” (Molecular Diversity, 2024).
Values joined by “and” are separate entries in the source; they are usually repeats but may differ in a detail not shown here. Equal values may be shown once.

Assays:
[1] = test system: SR; assay: NCI-60 one-dose SRB screen (Leukemia); format: cell-based; conditions: Homo sapiens, single dose 10 µM, 48 h, read-out: Growth inhibition percent (GI %)
[2] = test system: K-562; assay: NCI-60 one-dose SRB screen (Leukemia); format: cell-based; conditions: Homo sapiens, K562, single dose 10 µM, 48 h, read-out: Growth inhibition percent (GI %)
[3] = test system: MOLT-4; assay: NCI-60 one-dose SRB screen (Leukemia); format: cell-based; conditions: Homo sapiens, single dose 10 µM, 48 h, read-out: Growth inhibition percent (GI %)
[4] = test system: HL-60(TB); assay: NCI-60 one-dose SRB screen (Leukemia); format: cell-based; conditions: Homo sapiens, single dose 10 µM, 48 h, read-out: Growth inhibition percent (GI %)
[5] = test system: RPMI-8226; assay: NCI-60 one-dose SRB screen (Leukemia); format: cell-based; conditions: Homo sapiens, single dose 10 µM, 48 h, read-out: Growth inhibition percent (GI %)
[6] = test system: CCRF-CEM; assay: NCI-60 one-dose SRB screen (Leukemia); format: cell-based; conditions: Homo sapiens, single dose 10 µM, 48 h, read-out: Growth inhibition percent (GI %)
[7] = test system: UACC-62; assay: NCI-60 one-dose SRB screen (Melanoma); format: cell-based; conditions: Homo sapiens, single dose 10 µM, 48 h, read-out: Growth inhibition percent (GI %)
[8] = test system: SK-MEL-28; assay: NCI-60 one-dose SRB screen (Melanoma); format: cell-based; conditions: Homo sapiens, single dose 10 µM, 48 h, read-out: Growth inhibition percent (GI %)
[9] = test system: MDA-MB-435; assay: NCI-60 one-dose SRB screen (Melanoma); format: cell-based; conditions: Homo sapiens, single dose 10 µM, 48 h, read-out: Growth inhibition percent (GI %)
[10] = test system: MALME-3M; assay: NCI-60 one-dose SRB screen (Melanoma); format: cell-based; conditions: Homo sapiens, single dose 10 µM, 48 h, read-out: Growth inhibition percent (GI %)
[11] = test system: SK-MEL-5; assay: NCI-60 one-dose SRB screen (Melanoma); format: cell-based; conditions: Homo sapiens, single dose 10 µM, 48 h, read-out: Growth inhibition percent (GI %)
[12] = test system: UACC-257; assay: NCI-60 one-dose SRB screen (Melanoma); format: cell-based; conditions: Homo sapiens, single dose 10 µM, 48 h, read-out: Growth inhibition percent (GI %)
[13] = test system: SK-MEL-2; assay: NCI-60 one-dose SRB screen (Melanoma); format: cell-based; conditions: Homo sapiens, single dose 10 µM, 48 h, read-out: Growth inhibition percent (GI %)
[14] = test system: LOX IMVI; assay: NCI-60 one-dose SRB screen (Melanoma); format: cell-based; conditions: Homo sapiens, single dose 10 µM, 48 h, read-out: Growth inhibition percent (GI %)
[15] = test system: M14; assay: NCI-60 one-dose SRB screen (Melanoma); format: cell-based; conditions: Homo sapiens, single dose 10 µM, 48 h, read-out: Growth inhibition percent (GI %)
[16] = biological target: hCA XII (Homo sapiens, UniProt O43570); assay: CA inhibitory activity, spectrophotometric p-NPA assay; format: biochemical; conditions: for IC50: p-NPA substrate, pH 7.5, 25 °C, triplicate, read-out: IC50 (µM) ± SD hCA XII
Experimental: (§1) The software used to calculate CA IC50 along with statistical analysis of the results is GraphPad Prism 9.00. Results were estimated by using one-way ANOVA and the Bonferroni’s multiple comparisons posthoc test was performed (P < 0.05) [46]
Carbonic anhydrase inhibitory activity:
(§2) The spectrophotometric assay was conducted in HEPES-Tris buffer, NaCl of pH 7.5 (20mM) at 25◦C. Each inhibitory well-consisted of 50 μL of assay buffer solution, 20 μL of hCA enzyme solution (20 ng/μL in Assay Buffer), and 50 μL of test compound in HPLC grade DMSO (maintain 10% of the final concentration). The mixture solution was
(§3) Substrate p-nitrophenyl acetate (p-NPA) (0.7mM) was prepared in HPLC grade methanol and the reaction was started by adding 20 μL to a well in a 96-well-plate. The amount of product formed was measured for 30 min continuously at 1 min intervals at 400 nm in a 96-well-plate using xMARK microplate spectrophotometer, Bio-Rad (USA). The activity of the controlled compound was taken as 100%. All experiments were carried out in triplicates of each used concentration, and results are represented as a

[17] = test system: HS 578T; assay: NCI-60 one-dose SRB screen (Breast Cancer); format: cell-based; conditions: Homo sapiens, single dose 10 µM, 48 h, read-out: Growth inhibition percent (GI %)
[18] = test system: MDA-MB-468; assay: NCI-60 one-dose SRB screen (Breast Cancer); format: cell-based; conditions: Homo sapiens, single dose 10 µM, 48 h, read-out: Growth inhibition percent (GI %)
[19] = test system: MCF-7; assay: NCI-60 one-dose SRB screen (Breast Cancer); format: cell-based; conditions: Homo sapiens, MCF7, single dose 10 µM, 48 h, read-out: Growth inhibition percent (GI %)
[20] = test system: MDA-MB-231/ATCC; assay: NCI-60 one-dose SRB screen (Breast Cancer); format: cell-based; conditions: Homo sapiens, single dose 10 µM, 48 h, read-out: Growth inhibition percent (GI %)
[21] = test system: PC-3; assay: NCI-60 one-dose SRB screen (Prostate Cancer); format: cell-based; conditions: Homo sapiens, single dose 10 µM, 48 h, read-out: Growth inhibition percent (GI %)
[22] = test system: DU-145; assay: NCI-60 one-dose SRB screen (Prostate Cancer); format: cell-based; conditions: Homo sapiens, single dose 10 µM, 48 h, read-out: Growth inhibition percent (GI %)
[23] = biological target: hCA IX (Homo sapiens, UniProt Q16790); assay: CA inhibitory activity, spectrophotometric p-NPA assay; format: biochemical; conditions: for IC50: p-NPA substrate, pH 7.5, 25 °C, triplicate, read-out: IC50 (µM) ± SD hCA IX
Experimental: as §1
Carbonic anhydrase inhibitory activity:
as §2, §3

[24] = test system: U251; assay: NCI-60 one-dose SRB screen (CNS Cancer); format: cell-based; conditions: Homo sapiens, U-251, single dose 10 µM, 48 h, read-out: Growth inhibition percent (GI %)
[25] = test system: SF-539; assay: NCI-60 one-dose SRB screen (CNS Cancer); format: cell-based; conditions: Homo sapiens, single dose 10 µM, 48 h, read-out: Growth inhibition percent (GI %)
[26] = test system: SNB-75; assay: NCI-60 one-dose SRB screen (CNS Cancer); format: cell-based; conditions: Homo sapiens, single dose 10 µM, 48 h, read-out: Growth inhibition percent (GI %)
[27] = test system: SF-268; assay: NCI-60 one-dose SRB screen (CNS Cancer); format: cell-based; conditions: Homo sapiens, single dose 10 µM, 48 h, read-out: Growth inhibition percent (GI %)
[28] = test system: SF-295; assay: NCI-60 one-dose SRB screen (CNS Cancer); format: cell-based; conditions: Homo sapiens, single dose 10 µM, 48 h, read-out: Growth inhibition percent (GI %)
[29] = test system: SNB-19; assay: NCI-60 one-dose SRB screen (CNS Cancer); format: cell-based; conditions: Homo sapiens, single dose 10 µM, 48 h, read-out: Growth inhibition percent (GI %)
[30] = test system: SK-OV-3; assay: NCI-60 one-dose SRB screen (Ovarian cancer); format: cell-based; conditions: Homo sapiens, single dose 10 µM, 48 h, read-out: Growth inhibition percent (GI %)
[31] = test system: OVCAR-8; assay: NCI-60 one-dose SRB screen (Ovarian cancer); format: cell-based; conditions: Homo sapiens, single dose 10 µM, 48 h, read-out: Growth inhibition percent (GI %)
[32] = test system: IGROV1; assay: NCI-60 one-dose SRB screen (Ovarian cancer); format: cell-based; conditions: Homo sapiens, IGROV-1, single dose 10 µM, 48 h, read-out: Growth inhibition percent (GI %)
[33] = test system: OVCAR-5; assay: NCI-60 one-dose SRB screen (Ovarian cancer); format: cell-based; conditions: Homo sapiens, single dose 10 µM, 48 h, read-out: Growth inhibition percent (GI %)
[34] = test system: OVCAR-3; assay: NCI-60 one-dose SRB screen (Ovarian cancer); format: cell-based; conditions: Homo sapiens, single dose 10 µM, 48 h, read-out: Growth inhibition percent (GI %)
[35] = test system: OVCAR-4; assay: NCI-60 one-dose SRB screen (Ovarian cancer); format: cell-based; conditions: Homo sapiens, single dose 10 µM, 48 h, read-out: Growth inhibition percent (GI %)
[36] = test system: NCI/ADR-RES; assay: NCI-60 one-dose SRB screen (Ovarian cancer); format: cell-based; conditions: Homo sapiens, single dose 10 µM, 48 h, read-out: Growth inhibition percent (GI %)
[37] = test system: NCI-H226; assay: NCI-60 one-dose SRB screen (Non-Small Cell Lung Cancer); format: cell-based; conditions: Homo sapiens, single dose 10 µM, 48 h, read-out: Growth inhibition percent (GI %)
[38] = test system: NCI-H322M; assay: as above; format: cell-based; conditions: Homo sapiens, single dose 10 µM, 48 h, read-out: Growth inhibition percent (GI %)
[39] = test system: HOP-62; assay: as above; format: cell-based; conditions: Homo sapiens, single dose 10 µM, 48 h, read-out: Growth inhibition percent (GI %)
[40] = test system: EKVX; assay: as above; format: cell-based; conditions: Homo sapiens, single dose 10 µM, 48 h, read-out: Growth inhibition percent (GI %)
[41] = test system: NCI-H522; assay: as above; format: cell-based; conditions: Homo sapiens, single dose 10 µM, 48 h, read-out: Growth inhibition percent (GI %)
[42] = test system: HOP-92; assay: as above; format: cell-based; conditions: Homo sapiens, single dose 10 µM, 48 h, read-out: Growth inhibition percent (GI %)
[43] = test system: NCI-H23; assay: as above; format: cell-based; conditions: Homo sapiens, single dose 10 µM, 48 h, read-out: Growth inhibition percent (GI %)
[44] = test system: A549/ATCC; assay: as above; format: cell-based; conditions: Homo sapiens, single dose 10 µM, 48 h, read-out: Growth inhibition percent (GI %)
[45] = test system: NCI-H460; assay: as above; format: cell-based; conditions: Homo sapiens, single dose 10 µM, 48 h, read-out: Growth inhibition percent (GI %)

Sequence of hCA XII (O43570 25-354): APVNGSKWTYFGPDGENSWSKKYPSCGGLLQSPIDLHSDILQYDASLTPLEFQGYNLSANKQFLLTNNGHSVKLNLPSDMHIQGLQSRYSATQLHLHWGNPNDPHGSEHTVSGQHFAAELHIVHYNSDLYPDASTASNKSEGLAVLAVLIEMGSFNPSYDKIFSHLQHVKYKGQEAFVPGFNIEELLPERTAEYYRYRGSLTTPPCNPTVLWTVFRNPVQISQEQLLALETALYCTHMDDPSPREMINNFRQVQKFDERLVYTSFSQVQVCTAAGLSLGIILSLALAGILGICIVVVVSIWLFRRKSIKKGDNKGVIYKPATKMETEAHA

Compound: CS(=O)(=O)c1ccc(-c2nn(-c3ccc(S(N)(=O)=O)cc3)cc2C(=O)OCC(=O)Nc2ccc(S(N)(=O)=O)cc2)cc1 [Compound 4e, 2-Oxo-2-[(4-sulfamoylphenyl)amino] ethyl 3-(4-(methylsulfonyl)phenyl)-1-(4-sulfamoylphenyl)-1H-pyrazole-4-carboxylate]
- inhibition at 10 µM [1]: < 5%
- inhibition at 10 µM [2]: < 5%
- inhibition at 10 µM [3]: < 5%
- inhibition at 10 µM [4]: < 5%
- inhibition at 10 µM [5]: < 5%
- inhibition at 10 µM [6]: < 5%
- inhibition at 10 µM [7]: < 5%
- inhibition at 10 µM [8]: < 5%
- inhibition at 10 µM [9]: < 5%
- inhibition at 10 µM [10]: < 5%
- inhibition at 10 µM [11]: < 5%
- inhibition at 10 µM [12]: 6.07%
- inhibition at 10 µM [13]: < 5%
- inhibition at 10 µM [14]: < 5%
- inhibition at 10 µM [15]: < 5%
- Ki [16]: 0.081 µM
- IC50 [16]: 0.08 µM and 0.081 µM
- inhibition at 10 µM [17]: < 5%
- inhibition at 10 µM [18]: < 5%
- inhibition at 10 µM [19]: < 5%
- inhibition at 10 µM [20]: < 5%
- inhibition at 10 µM [21]: < 5%
- inhibition at 10 µM [22]: < 5%
- Ki [23]: 0.072 µM
- IC50 [23]: 0.07 µM and 0.072 µM
- inhibition at 10 µM [24]: < 5%
- inhibition at 10 µM [25]: < 5%
- inhibition at 10 µM [26]: < 5%
- inhibition at 10 µM [27]: < 5%
- inhibition at 10 µM [28]: < 5%
- inhibition at 10 µM [29]: < 5%
- inhibition at 10 µM [30]: < 5%
- inhibition at 10 µM [31]: < 5%
- inhibition at 10 µM [32]: < 5%
- inhibition at 10 µM [33]: < 5%
- inhibition at 10 µM [34]: < 5%
- inhibition at 10 µM [35]: < 5%
- inhibition at 10 µM [36]: < 5%
- melting point: 132 to 135 °C
- inhibition at 10 µM [37]: < 5%
- inhibition at 10 µM [38]: < 5%
- inhibition at 10 µM [39]: < 5%
- inhibition at 10 µM [40]: < 5%
- inhibition at 10 µM [41]: 23.1%
- inhibition at 10 µM [42]: < 5%
- inhibition at 10 µM [43]: < 5%
- inhibition at 10 µM [44]: 6.92%
- inhibition at 10 µM [45]: < 5%

Compound: NS(=O)(=O)c1ccc(-n2cc(C(=O)OCC(=O)Nc3nnc(S(N)(=O)=O)s3)c(-c3ccccc3)n2)cc1 [Compound 6a, 2-Oxo-2-[(5-sulfamoyl-1,3,4-thiadiazol-2-yl)amino] ethyl 3-phenyl-1-(4-sulfamoylphenyl)-1H-pyrazole-4-carboxylate]
- inhibition at 10 µM [1]: 17%
- inhibition at 10 µM [2]: < 5%
- inhibition at 10 µM [3]: < 5%
- inhibition at 10 µM [4]: < 5%
- inhibition at 10 µM [5]: < 5%
- inhibition at 10 µM [6]: < 5%
- inhibition at 10 µM [7]: 17.7%
- inhibition at 10 µM [8]: < 5%
- inhibition at 10 µM [9]: < 5%
- inhibition at 10 µM [10]: < 5%
- inhibition at 10 µM [11]: < 5%
- inhibition at 10 µM [12]: < 5%
- inhibition at 10 µM [13]: < 5%
- inhibition at 10 µM [14]: 8.67%
- inhibition at 10 µM [15]: < 5%
- IC50 [16]: 0.35 µM and 0.358 µM
- inhibition at 10 µM [17]: 5.52%
- inhibition at 10 µM [18]: < 5%
- inhibition at 10 µM [19]: 22.6%
- inhibition at 10 µM [20]: 9.95%
- inhibition at 10 µM [21]: < 5%
- inhibition at 10 µM [22]: < 5%
- IC50 [23]: 0.591 ± 0.028 µM
- inhibition at 10 µM [24]: < 5%
- inhibition at 10 µM [25]: < 5%
- inhibition at 10 µM [26]: 5.39%
- inhibition at 10 µM [27]: < 5%
- inhibition at 10 µM [28]: < 5%
- inhibition at 10 µM [29]: 6.91%
- inhibition at 10 µM [30]: 54.6%
- inhibition at 10 µM [31]: < 5%
- inhibition at 10 µM [32]: < 5%
- inhibition at 10 µM [33]: < 5%
- inhibition at 10 µM [34]: < 5%
- inhibition at 10 µM [35]: < 5%
- inhibition at 10 µM [36]: < 5%
- melting point: 135 to 137 °C
- inhibition at 10 µM [37]: 16.2%
- inhibition at 10 µM [38]: < 5%
- inhibition at 10 µM [39]: < 5%
- inhibition at 10 µM [40]: 9.86%
- inhibition at 10 µM [41]: 13.3%
- inhibition at 10 µM [42]: < 5%
- inhibition at 10 µM [43]: < 5%
- inhibition at 10 µM [44]: < 5%
- inhibition at 10 µM [45]: < 5%
